Active and inactive are the calls of the source. Where only a bound is given, the exact number is not on record here.

Experiment [1] is described as follows: cytotoxicity toward NIH3T3 fibroblasts, dose response, counter-screen, cell-based, ATP luminescence, mouse fibroblasts (AID 2010).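 Also: cells exposed to compound for about 90 hours before reading.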 The format is functional.
Experiment [2] has as its system BJ. Description: cytotoxicity toward BJ-TERT fibroblasts, dose response, cell-based, RAS-independent, luminescence (AID 1933). It is filed as functional. The settings on record: Homo sapiens.
Experiment [3] has as its target 1-phosphatidylinositol 4,5-bisphosphate phosphodiesterase gamma-1 (Homo sapiens, UniProt P19174). Briefly: Counterscreen for inhibitors of phospholipase C isozymes (PLC-B3): Fluorescence-based biochemical high throughput dose response assay to identify inhibitors of phospholipase C isozymes (PLC-gamma1).
Experiment [4] concerns INS1. Description: beta cell apoptosis inhibitors, cytokine rescue, dose response, luminescence, retest (AID 449756).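 Also: cell death triggered by IL-1 beta plus TNF-alpha plus IFN-gamma mixture; protective hits raise ATP signal compared with cytokine alone wells.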 The format is functional, cell-based. The note with it: Rattus norvegicus.
Experiment [5] deals with T1, Exodeoxyribonuclease V (Escherichia coli (strain K12), UniProt P04993+P07648+P08394).
T1 sequence (P04993 whole entry): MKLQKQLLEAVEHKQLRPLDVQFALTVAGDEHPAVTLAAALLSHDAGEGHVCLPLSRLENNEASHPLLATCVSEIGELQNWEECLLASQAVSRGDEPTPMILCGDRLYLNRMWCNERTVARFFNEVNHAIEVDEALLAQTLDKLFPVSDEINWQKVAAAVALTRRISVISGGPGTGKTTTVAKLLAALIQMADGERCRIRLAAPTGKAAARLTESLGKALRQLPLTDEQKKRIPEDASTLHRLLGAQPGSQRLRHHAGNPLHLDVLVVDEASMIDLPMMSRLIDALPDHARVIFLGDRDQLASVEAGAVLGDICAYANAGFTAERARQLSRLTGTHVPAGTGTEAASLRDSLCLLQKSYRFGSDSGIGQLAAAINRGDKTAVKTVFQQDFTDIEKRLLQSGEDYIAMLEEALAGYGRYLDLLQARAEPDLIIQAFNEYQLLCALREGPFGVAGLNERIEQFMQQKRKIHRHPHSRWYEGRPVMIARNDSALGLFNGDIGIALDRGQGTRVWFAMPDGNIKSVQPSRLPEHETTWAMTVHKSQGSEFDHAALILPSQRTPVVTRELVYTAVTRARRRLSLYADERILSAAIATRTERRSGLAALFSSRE
T1 sequence (P07648 whole entry): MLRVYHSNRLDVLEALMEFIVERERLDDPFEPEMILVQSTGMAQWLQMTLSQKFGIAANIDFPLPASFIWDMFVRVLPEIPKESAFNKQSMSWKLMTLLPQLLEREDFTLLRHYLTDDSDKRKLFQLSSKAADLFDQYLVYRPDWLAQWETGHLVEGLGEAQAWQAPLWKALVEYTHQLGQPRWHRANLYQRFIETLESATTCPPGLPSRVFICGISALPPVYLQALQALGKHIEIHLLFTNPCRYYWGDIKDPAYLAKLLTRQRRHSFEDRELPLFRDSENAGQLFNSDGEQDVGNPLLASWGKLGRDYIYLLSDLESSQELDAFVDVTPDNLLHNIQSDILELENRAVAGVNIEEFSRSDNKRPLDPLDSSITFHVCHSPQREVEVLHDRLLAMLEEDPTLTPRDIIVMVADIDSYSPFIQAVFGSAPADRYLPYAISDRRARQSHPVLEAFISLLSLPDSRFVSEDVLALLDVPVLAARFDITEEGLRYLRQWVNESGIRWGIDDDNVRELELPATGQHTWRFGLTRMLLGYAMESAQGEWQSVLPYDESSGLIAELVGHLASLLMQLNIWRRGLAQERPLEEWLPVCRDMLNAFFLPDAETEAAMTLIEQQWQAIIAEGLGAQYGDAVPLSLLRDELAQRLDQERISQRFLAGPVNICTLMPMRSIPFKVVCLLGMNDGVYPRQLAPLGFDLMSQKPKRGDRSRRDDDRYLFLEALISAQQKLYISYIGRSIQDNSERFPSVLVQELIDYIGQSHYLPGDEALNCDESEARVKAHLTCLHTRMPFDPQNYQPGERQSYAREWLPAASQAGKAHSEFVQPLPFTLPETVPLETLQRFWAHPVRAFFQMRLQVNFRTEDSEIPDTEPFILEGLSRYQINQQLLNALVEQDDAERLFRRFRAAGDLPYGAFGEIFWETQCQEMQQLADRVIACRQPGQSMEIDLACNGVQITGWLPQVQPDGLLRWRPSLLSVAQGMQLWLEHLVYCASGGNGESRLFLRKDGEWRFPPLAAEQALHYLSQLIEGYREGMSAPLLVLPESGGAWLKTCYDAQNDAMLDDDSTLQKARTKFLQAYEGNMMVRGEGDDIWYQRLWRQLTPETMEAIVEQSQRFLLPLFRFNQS
T1 sequence (P08394 whole entry): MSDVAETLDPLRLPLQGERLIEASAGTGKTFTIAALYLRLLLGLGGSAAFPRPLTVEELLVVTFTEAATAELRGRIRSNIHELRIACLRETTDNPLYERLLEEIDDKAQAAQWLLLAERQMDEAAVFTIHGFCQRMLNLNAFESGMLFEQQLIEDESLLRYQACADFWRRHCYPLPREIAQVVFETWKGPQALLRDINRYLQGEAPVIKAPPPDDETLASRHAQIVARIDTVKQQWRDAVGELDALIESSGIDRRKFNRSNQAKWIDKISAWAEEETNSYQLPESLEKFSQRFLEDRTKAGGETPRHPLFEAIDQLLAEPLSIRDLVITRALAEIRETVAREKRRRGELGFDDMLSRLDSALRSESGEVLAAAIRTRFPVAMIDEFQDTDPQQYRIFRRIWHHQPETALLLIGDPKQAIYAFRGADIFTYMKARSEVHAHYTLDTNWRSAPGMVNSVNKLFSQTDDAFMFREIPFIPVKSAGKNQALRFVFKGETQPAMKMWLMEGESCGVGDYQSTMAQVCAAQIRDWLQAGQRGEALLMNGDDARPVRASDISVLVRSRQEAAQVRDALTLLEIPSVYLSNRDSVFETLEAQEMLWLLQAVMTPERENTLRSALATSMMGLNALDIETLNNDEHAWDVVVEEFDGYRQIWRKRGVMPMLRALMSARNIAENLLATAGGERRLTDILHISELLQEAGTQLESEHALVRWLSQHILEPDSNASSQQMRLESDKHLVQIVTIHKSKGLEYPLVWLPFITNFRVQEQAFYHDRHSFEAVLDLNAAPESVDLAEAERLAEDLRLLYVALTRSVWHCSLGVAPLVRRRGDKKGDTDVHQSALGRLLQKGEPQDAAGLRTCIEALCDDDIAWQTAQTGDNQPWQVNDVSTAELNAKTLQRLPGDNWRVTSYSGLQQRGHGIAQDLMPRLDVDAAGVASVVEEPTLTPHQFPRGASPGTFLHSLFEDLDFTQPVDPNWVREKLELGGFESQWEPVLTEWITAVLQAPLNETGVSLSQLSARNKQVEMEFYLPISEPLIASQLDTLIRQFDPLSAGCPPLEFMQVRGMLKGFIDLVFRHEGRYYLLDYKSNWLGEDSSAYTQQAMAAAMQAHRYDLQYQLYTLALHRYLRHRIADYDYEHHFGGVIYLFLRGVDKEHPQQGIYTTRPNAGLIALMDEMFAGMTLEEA
Description: E. coli RecBCD inhibitors, dose response, counter-screen for AddAB inhibitor project, absorbance, V66 E. coli, mutant T4 phage (AID 492957). It is filed as functional, cell-based, Escherichia coli str. K-12 substr. MG1655.

Chain of 1-phosphatidylinositol 4,5-bisphosphate phosphodiesterase gamma-1 (P19174 whole entry): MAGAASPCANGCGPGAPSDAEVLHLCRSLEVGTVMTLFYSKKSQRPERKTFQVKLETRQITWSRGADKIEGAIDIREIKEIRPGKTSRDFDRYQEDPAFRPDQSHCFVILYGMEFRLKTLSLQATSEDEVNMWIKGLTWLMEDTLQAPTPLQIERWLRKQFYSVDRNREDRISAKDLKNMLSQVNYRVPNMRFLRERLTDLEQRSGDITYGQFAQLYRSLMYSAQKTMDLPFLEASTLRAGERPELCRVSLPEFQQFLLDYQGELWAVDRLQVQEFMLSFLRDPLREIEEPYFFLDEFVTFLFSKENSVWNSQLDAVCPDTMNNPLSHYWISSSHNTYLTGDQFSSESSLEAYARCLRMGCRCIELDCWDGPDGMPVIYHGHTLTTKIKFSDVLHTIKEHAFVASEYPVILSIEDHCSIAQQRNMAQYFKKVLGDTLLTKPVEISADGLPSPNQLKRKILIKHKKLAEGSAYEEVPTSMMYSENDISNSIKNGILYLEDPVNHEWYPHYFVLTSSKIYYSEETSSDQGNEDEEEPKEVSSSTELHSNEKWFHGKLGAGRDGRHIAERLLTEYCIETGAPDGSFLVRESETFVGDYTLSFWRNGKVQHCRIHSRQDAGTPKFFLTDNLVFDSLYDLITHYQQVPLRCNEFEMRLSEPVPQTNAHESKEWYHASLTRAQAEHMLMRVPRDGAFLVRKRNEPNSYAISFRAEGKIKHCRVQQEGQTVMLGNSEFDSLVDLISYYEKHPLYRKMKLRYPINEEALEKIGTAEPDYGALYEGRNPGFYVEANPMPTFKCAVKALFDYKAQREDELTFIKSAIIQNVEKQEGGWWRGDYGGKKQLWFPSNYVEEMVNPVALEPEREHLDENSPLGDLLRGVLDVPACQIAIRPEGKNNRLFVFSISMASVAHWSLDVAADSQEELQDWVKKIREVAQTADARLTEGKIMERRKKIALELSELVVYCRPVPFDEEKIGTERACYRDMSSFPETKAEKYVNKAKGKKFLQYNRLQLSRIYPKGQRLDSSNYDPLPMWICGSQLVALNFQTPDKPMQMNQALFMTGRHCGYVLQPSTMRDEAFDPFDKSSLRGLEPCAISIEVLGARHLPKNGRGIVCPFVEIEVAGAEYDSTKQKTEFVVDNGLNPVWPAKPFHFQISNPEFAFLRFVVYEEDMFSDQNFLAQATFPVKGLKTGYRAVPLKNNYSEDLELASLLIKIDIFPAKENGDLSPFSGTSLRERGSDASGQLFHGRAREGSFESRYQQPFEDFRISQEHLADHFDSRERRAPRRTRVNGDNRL

Consider `COC(=O)[C@@H]1[C@@H](C(=O)OC)C2(c3ccccc3-c3ccccc32)N(c2ccc(Cl)cc2)N1C#N`, for which the EC50 in experiment [1] is 6.87 µM (active); in experiment [2], 2.87 µM (inconclusive).
Turning to `O=C(O)c1ccc(NC2=C/C(=N/S(=O)(=O)c3ccccc3)c3ccccc3C2=O)cc1`, in experiment [3], the IC50 is 45.5 µM (inactive).
On to `Nc1ccc2c(c1)C(=O)C(=O)c1ccccc1-2`, for which, in experiment [4], the AC50 is 1.06 µM (active). Also, the EC50 in experiment [2] was 2.58 µM (inconclusive). Also, the IC50 in experiment [3] was 5.14 µM (active).
`CCCC(=O)NC(c1ccccc1OC)c1ccc2cccnc2c1O` (stereo not given): the AC50 in experiment [4] was 1.14 µM (active). Moreover, the EC50 in experiment [1] is 1.55 µM (active). For the same molecule, in experiment [5], the IC50 was > 119 µM (inactive).
As for `Cc1ccc2nc(/C(C#N)=C\c3ccc([N+](=O)[O-])o3)[nH]c2c1`, in experiment [5], the IC50 is > 119 µM (inactive).
